Laboratory results taken from patent publication US8492409B2, “1-substituted pyridyl-pyrazolyl amide compounds and uses thereof” (Sinochem Corporation, priority 2008, dated 2013).
Like-named read-outs stand apart in the source and are kept apart here.

Tests used:
[1] = tested on: beet armyworm (Laphygma exigua Hubner); test: Test against beet armyworm (leaf disc spray); type: in vivo; settings: Spodoptera exigua, foliar, 96 h, after 96 h; for mortality at 1 ppm / mortality at 10 ppm: third instar; for mortality at 0.3 ppm / mortality at 0.6 ppm: parallel test
Protocol: (§1) According to the solubility of test compounds, the compounds are dissolved in acetone or dimethyl sulfoxide, and then diluted with 0.1% aqueous solution of Tween 80 to form 50 ml test liquid, the content of acetone or dimethyl sulfoxide in the total solution is not more than 10%.
The cabbage leaves were perforated to get 1 cm diameter leaf discs by the hole puncher. Certain concentrations of test compounds were sprayed on both sides of the discs at the spray volume of 0.5 ml by Airbrush. Eight test insects (third instar) were introduced on each treatment after drying. Each treatment repeated 3 times. The treated discs were placed in a chamber of 24° C., 60%-70% relative humidity, no light. After 96 h, the number of surviving insects was investigated and the mortality was calculated.

[2] = tested on: fall armyworm (Spodoptera frugiperda); settings: 10 ppm; cited from earlier work
[3] = tested on: striped stem borer (Chilo suppressalis (Walker)); test: Test against striped stem borer (artificial feed film); type: in vivo
Protocol: as §1
The 6 well culture plates were chosen, 5 mL artificial feed was added into each well. After the feed solidified, 0.2 mL solution of certain concentrations of test compounds was added into per well with a continuous sampler and made the uniform film in the feed surface. Eight regular health insects (second instar) were introduced on each treatment after drying. Each treatment was repeated for 4 times. The pure water was set as CK. The treated discs were placed in a chamber of 24° C., 60%-70% relative humidity and day light. After 72 h, the number of surviving insects was investigated and the mortality was calculated.

[4] = tested on: rice leaf folder (Cnaphalocrocis medinalis Guenee); test: Field test against rice leaf folder; type: in vivo; settings: 168 h, spray 450 L/ha, after 7 d
Protocol: A certain concentrations of test compounds were sprayed on leaves at the time of hatching peak of rice leaf folder. Spay volume was 450 L/ha. The section area of rice was 32 m^2. Each treatment was repeated for 3 times. After 7d, the number of surviving insects was investigated and the mortality was calculated.

[5] = tested on: cucumber anthracnose (Colletotrichum lagenarium, CA); test: Fungicidal activity test against cucumber anthracnose in vivo; settings: 400 ppm spray on potted cucumber seedlings; visual assessment after 5 days
[6] = tested on: tomato late blight (Phytophthora infestans); test: microbe, parasite or virus in culture; type: cell-based; settings: 240 h, read-out: control efficiency against tomato late blight (rate of fungi inhibition)
[7] = tested on: army worm (Mythimna separata); test: Test against army worm (corn leaf dip); type: in vivo; settings: foliar, third instar, after 72 h
Protocol: as §1
The middle part of fresh corn leaves were chosen and cut into 3 cm sects. The sects were dipped into the solution of certain concentration of test compounds for 10 seconds, dried and placed in 9 cm diameter Petri dish. Eight regular health insects (third instar) were introduced on each treatment. Each treatment was repeated for 4 times. The pure water was set as CK. The treated discs were placed in a chamber of 24° C., 60%-70% relative humidity and day light. After 72 h, the number of surviving insects was investigated and the mortality rates were calculated.

[8] = tested on: Diamondback moth (Plutella xylostella); test: Test against diamondback moth (cabbage leaf disc dip); type: in vivo; settings: foliar, third instar, after 72 h
Protocol: as §1
The leaves of cabbage grown in greenhouse were chosen, removed the surface waxy layer and perforated to get 2 cm diameter leaf discs by the hole puncher. The discs were dipped in a solution of certain concentrations of test compounds for 10 seconds, dried and placed in 9 cm diameter Petri dish. Eight regular health insects (third instar) were introduced on each treatment. Each treatment was repeated for 4 times. The pure water was set as CK. The treated discs were placed in a chamber of 24° C., 60%-70% relative humidity and day light. After 72 h, the number of surviving insects was investigated and the mortality was calculated.

[9] = tested on: armyworm (Mythimna seperata); settings: 50 ppm; cited from earlier work
[10] = 10 ppm, read-out: mortality against beet armyworm
[11] = parallel test, Table 5, after 72 h
[12] = 0.3 ppm, Table 3, read-out: Mortality (%) against beet armyworm

**Q.** Which mortality at 1 ppm [1] does the source give for CCNC(=O)c1cc(Cl)cc(C)c1NC(=O)c1cc(Br)nn1-c1ncc(Cl)cc1Cl [Compound 22] here?
**A.** ≥ 90%

**Q.** And the mortality at 10 ppm [1, 10]?
**A.** ≥ 90%

**Q.** Which results are given for CNC(=O)c1cc(Cl)cc(C)c1NC(=O)c1cc(C(F)(F)F)nn1-c1ncc(Cl)cc1Cl [Compound 3]?
**A.** mortality at 1 ppm [1]: ≥ 90%; mortality at 10 ppm [1, 10]: ≥ 90%

**Q.** Which “insecticidal activity against fall armyworm” value [2] does the source give for CNC(=O)c1cc(Cl)cc(C)c1NC(=O)c1cc(Br)nn1-c1ncccc1Cl [KC2, chlorantraniliprole, reference compound] here?
**A.** highly effective

**Q.** And the mortality at 5 ppm [3, 11]?
**A.** 60%

**Q.** And the mortality at 10 ppm [3, 11]?
**A.** 90%

**Q.** And the mortality at 30 g/ha [4]?
**A.** 34%

**Q.** What about the mortality at 60 g/ha [4] of the same molecule?
**A.** 52%

**Q.** With Cc1cc(Cl)cc(C(N)=O)c1NC(=O)c1cc(Br)nn1-c1ncc(Cl)cc1Cl [Compound 15] as the molecule, how does the mortality at 10 ppm [1, 10] read?
**A.** ≥ 90%

**Q.** With CNC(=O)c1cc(Cl)cc(C)c1NC(=O)c1cc(C)nn1-c1ncc(Cl)cc1Cl [Compound 1] as the molecule, how does the “protective controlling effect against cucumber anthracnose” value [5] read?
**A.** more than 90%

**Q.** What about the mortality at 10 ppm ([1]; read-out: mortality against beet armyworm, 10 ppm) of the same molecule?
**A.** ≥ 90%

**Q.** And the inhibition at 25 ppm [6]?
**A.** > 90%

**Q.** For CNC(=O)c1cc(Cl)cc(Cl)c1NC(=O)c1cc(Br)nn1-c1ncc(Cl)cc1Cl [Compound 19], which mortality at 5 ppm [3, 11] is on record?
**A.** 90%

**Q.** What about the mortality at 10 ppm [3, 11] of the same molecule?
**A.** 100%

**Q.** What about the mortality at 10 ppm ([3]; second instar, after 72 h) of the same molecule?
**A.** ≥ 90%

**Q.** And the mortality at 30 g/ha [4]?
**A.** 56%

**Q.** And the mortality at 60 g/ha [4]?
**A.** 63%

**Q.** And the mortality at 0.4 ppm [7]?
**A.** ≥ 90%

**Q.** And the mortality at 0.8 ppm [8]?
**A.** > 90%

**Q.** And the mortality at 0.3 ppm [1, 12]?
**A.** 87.5%

**Q.** And the mortality at 1 ppm [1]?
**A.** ≥ 90%

**Q.** What about the mortality at 10 ppm [1, 10] of the same molecule?
**A.** ≥ 90%

**Q.** For CNC(=O)c1cc(Cl)cc(C)c1NC(=O)c1cc(Br)nn1-c1ncc(Br)cc1Cl [KC1, reference compound], which “insecticidal activity against armyworm” value [9] is on record?
**A.** highly effective

**Q.** What about the mortality at 0.3 ppm ([1]; read-out: Mortality (%) against beet armyworm, 0.3 ppm, Table 3) of the same molecule?
**A.** 0%

**Q.** And the mortality at 0.3 ppm ([1]; read-out: Mortality (%) against beet armyworm, 0.3 ppm, Table 4)?
**A.** 12.5%

**Q.** And the mortality at 0.6 ppm ([1]; read-out: Mortality (%) against beet armyworm, 0.6 ppm, Table 4)?
**A.** 75.5%

**Q.** Which mortality at 10 ppm ([3]; second instar, after 72 h) does the source give for CNC(=O)c1cc(Cl)cc(C)c1NC(=O)c1cc(Br)nn1-c1ncc(Cl)cc1Cl [Compound 18] here?
**A.** ≥ 90%

**Q.** What about the mortality at 0.4 ppm [7] of the same molecule?
**A.** ≥ 90%

**Q.** And the mortality at 0.3 ppm [1, 12]?
**A.** 50%

**Q.** And the mortality at 0.3 ppm ([1]; 0.3 ppm, Table 4, read-out: Mortality (%) against beet armyworm)?
**A.** 62%

**Q.** What about the mortality at 0.6 ppm ([1]; 0.6 ppm, Table 4, read-out: Mortality (%) against beet armyworm) of the same molecule?
**A.** 100%

**Q.** What about the mortality at 1 ppm [1] of the same molecule?
**A.** ≥ 90%

**Q.** And the mortality at 10 ppm [1, 10]?
**A.** ≥ 90%
